Experimental data published in patent EP3828160A1, “TREPROSTINIL DERIVATIVE COMPOUNDS AND METHODS OF USING SAME” (Corsair Pharma, Inc., priority 2014, dated 2016).

What was measured:
Format in all cases: in vitro ADME
[1] = Human plasma stability assay (Test 2); details: 0.5 uM test compound, 37°C, up to 120 minutes, heparinated human plasma, read-out: Test 2 T1/2
Protocol: (§1) Four assays on compounds were carried out by the following methods with the results shown in Table I. • (Test 1) Human liver microsomal stability assay was conducted by incubating 0.5 uM test compounds at 37°C for up to 45 minutes in 50 mM of potassium phosphate buffer (pH 7.4) containing 0.5 mg of microsomal protein and 50 µL of NADPH generating system (7.8 mg of glucose 6-phosphate, 1.7 mg of NADPH and 6 U of glucose 6-phosphate dehydrogenase per mL in 2% w/v of sodium bicarbonate). At 0, 5, 15, 30 and 45 min., an aliquot was taken, quenched with internal standard containing stop solution. No co-factor controls at 45 minutes were also prepared. After incubation, the samples were analyzed by LC-MS/MS. Peak area ratios of analyte to internal standard were used to calculate the intrinsic clearance. The intrinsic clearance (CLint) was determined from the first order elimination constant by non-linear regression. Formation of the active drug Compound A over the time course was also monitored by LC-MS/MS analysis. • (Test 2) Human plasma stability assay was conducted by incubating 0.5 uM test compounds at 37°C for up to 120 minutes in heparinated human plasma. At 0, 5, 15, 30, 60 and 120 […] min., an aliquot was taken, quenched with internal standard containing stop solution. After incubation, the samples were analyzed by LC-MS/MS. Peak area ratios of analyte to internal standard were used to calculate the half-life. Formation of the active drug Compound A over the time course was also monitored by LC-MS/MS analysis. • (Test 3) Human skin homogenate stability assay was conducted in a similar way as the human liver microsomal stability assay, by incubating 0.5 uM test compounds at 37°C for up to 45 minutes in 50 mM of potassium phosphate buffer (pH 7.4) containing 0.5 mg of human skin homogenate protein and 50 µL of NADPH generating system (7.8 mg of glucose 6-phosphate, 1.7 mg of NADPH and 6 U of glucose 6-phosphate dehydrogenase per mL in 2% w/v of sodium bicarbonate). At 0, 5, 15, 30 and 45 min., an aliquot was taken, quenched with internal standard containing stop solution. No co-factor controls at 45 minutes were also prepared. After incubation, the samples were analyzed by LC-MS/MS. Peak area ratios of analyte to internal standard were used to calculate the intrinsic clearance. The intrinsic clearance (CLint) was determined from the first order elimination constant by non-linear regression. Formation of the active drug Compound A over the time course was also monitored by LC-MS/MS analysis. • (Test 4) Human hepatocyte stability assay was conducted by incubating 0.5 uM test compound at 37°C for up to 240 minutes. Cryopreserved human hepatocytes were obtained from Celsis IVT (Baltimore, Maryland). Cells were thawed according to vendor's instructions and were suspended in William's Medium E to 0.5 million cells/mL. Test compounds were spiked into the cell suspension to initiate the reactions. At 0, 10,30,60, 120 and 240 min., an aliquot was taken, quenched with internal standard containing stop solution. After incubation, the samples were analyzed by LC-MS/MS. Peak area ratios of analyte to internal standard were used to calculate the intrinsic clearance. The intrinsic clearance (CLint) was determined from the first order elimination constant by non-linear regression. Formation of the active drug Compound A over the time course was also monitored by LC-MS/MS analysis.

[2] = Human liver microsomal stability assay (Test 1); details: liver microsomes, 0.5 uM test compound, 37°C, up to 45 minutes, 0.5 mg microsomal protein, NADPH generating system, pH 7.4, read-out: Test 1 T1/2
Protocol: as §1

[3] = Human skin homogenate stability assay (Test 3); details: 0.5 uM test compound, 37°C, up to 45 minutes, 0.5 mg human skin homogenate protein, NADPH generating system, pH 7.4, read-out: Test 3 T1/2
Protocol: as §1

Compound | half-life at 0.5 uM [1] | half-life at 0.5 uM [2] | half-life at 0.5 uM [3]
CCCCCC(O)CCC1C(O)CC2Cc3c(cccc3OCC(=O)OCC3CC3)CC21 (stereo not shown) [Compound 1, [2-Hydroxy-1-(3-hydroxy-octyl)-2,3,3a,4,9,9a-hexahydro-1H-cyclopenta[b]naphthalen-5-yloxy]-acetic acid cyclopropylmethyl ester] | < 15 min | < 15 min | –
CCCCCC(O)CCC1C(O)CC2Cc3c(cccc3OCC(=O)OCCCF)CC21 (stereo not shown) [Compound 4, [2-Hydroxy-1-(3-hydroxy-octyl)-2,3,3a,4,9,9a-hexahydro-1H-cyclopenta[b]naphthalen-5-yloxy]-acetic acid 3-fluoro-propyl ester] | < 15 min | < 15 min | –
CCCCCC(O)CCC1C(O)CC2Cc3c(cccc3OCC(=O)OC3CCOC3)CC21 (stereo not shown) [Compound 5, [2-Hydroxy-1-(3-hydroxy-octyl)-2,3,3a,4,9,9a-hexahydro-1H-cyclopenta[b]naphthalen-5-yloxy]-acetic acid tetrahydro-furan-3-yl ester] | < 15 min | < 15 min | –
CCCCCC(O)CCC1C(O)CC2Cc3c(cccc3OCC(=O)OC(C)C(=O)OC)CC21 (stereo not shown) [Compound 6, 2-{2-[2-Hydroxy-1-(3-hydroxy-octyl)-2,3,3a,4,9,9a-hexahydro-1H-cyclopenta[b]naphthalen-5-yloxy]-acetoxy}-propionic acid methyl ester] | < 15 min | < 15 min | –
CCCCCC(O)CCC1C(O)CC2Cc3c(cccc3OCC(=O)NCCN)CC21 (stereo not shown) [Compound 8, N-(2-Amino-ethyl)-2-[2-hydroxy-1-(3-hydroxy-octyl)-2,3,3a,4,9,9a-hexahydro-1H-cyclopenta[b]naphthalen-5-yloxy]-acetamide] | – | 31 to 60 min | –
CCCCCC(O)CCC1C(O)CC2Cc3c(cccc3OCC(=O)OCCO)CC21 (stereo not shown) [Compound 9, [2-Hydroxy-1-(3-hydroxy-octyl)-2,3,3a,4,9,9a-hexahydro-1H-cyclopenta[b]naphthalen-5-yloxy]-acetic acid 2-hydroxy-ethyl ester] | – | < 15 min | –
CCCCCC(O)CCC1C(O)CC2Cc3c(cccc3OCC(=O)OCCOC)CC21 (stereo not shown) [Compound 10, [2-Hydroxy-1-(3-hydroxy-octyl)-2,3,3a,4,9,9a-hexahydro-1H-cyclopenta[b]naphthalen-5-yloxy]-acetic acid 2-methoxy-ethyl ester] | – | < 15 min | –
CCCCCC(O)CCC1C(O)CC2Cc3c(cccc3OCC(=O)NCCCO)CC21 (stereo not shown) [Compound 11, 2-[2-Hydroxy-1-(3-hydroxy-octyl)-2,3,3a,4,9,9a-hexahydro-1H-cyclopenta[b]naphthalen-5-yloxy]-N-(3-hydroxy-propyl)-acetamide] | > 60 min | < 15 min | –
CCCCCC(O)CCC1C(O)CC2Cc3c(cccc3OCC(=O)NCC(=O)OC)CC21 (stereo not shown) [Compound 12, {2-[2-Hydroxy-1-(3-hydroxy-octyl)-2,3,3a,4,9,9a-hexahydro-1H-cyclopenta[b]naphthalen-5-yloxy]-acetylamino}-acetic acid methyl ester] | > 60 min | < 15 min | –
CCCCCC(O)CCC1C(O)CC2Cc3c(cccc3OCC(=O)OC)CC21 (stereo not shown) [Compound 15, [2-Hydroxy-1-(3-hydroxy-octyl)-2,3,3a,4,9,9a-hexahydro-1H-cyclopenta[b]naphthalen-5-yloxy]-acetic acid methyl ester] | < 15 min | < 15 min | < 15 min
CCCCCC(O)CCC1C(O)CC2Cc3c(cccc3OCC(=O)OCC(C)(C)C)CC21 (stereo not shown) [Compound 16, [2-Hydroxy-1-(3-hydroxy-octyl)-2,3,3a,4,9,9a-hexahydro-1H-cyclopenta[b]naphthalen-5-yloxy]-acetic acid 2,2-dimethyl-propyl ester] | 15 to 30 min | < 15 min | 15 to 30 min
CCCCCC(O)CCC1C(O)CC2Cc3c(cccc3OCC(=O)OC(C)C(C)C)CC21 (stereo not shown) [Compound 17, [2-Hydroxy-1-(3-hydroxy-octyl)-2,3,3a,4,9,9a-hexahydro-1H-cyclopenta[b]naphthalen-5-yloxy]-acetic acid 1,2-dimethyl-propyl ester] | 31 to 60 min | < 15 min | 15 to 30 min
CCCCCC(O)CCC1C(O)CC2Cc3c(cccc3OCC(=O)OC(C)C(C)(C)C)CC21 (stereo not shown) [Compound 18, [2-Hydroxy-1-(3-hydroxy-octyl)-2,3,3a,4,9,9a-hexahydro-1H-cyclopenta[b]naphthalen-5-yloxy]-acetic acid 1,2,2-trimethyl-propyl ester] | > 60 min | < 15 min | > 60 min
CCCCCC(O)CCC1C(O)CC2Cc3c(cccc3OCC(=O)OC3CC4CCC3C4)CC21 (stereo not shown) [Compound 19, [2-Hydroxy-1-(3-hydroxy-octyl)-2,3,3a,4,9,9a-hexahydro-1H-cyclopenta[b]naphthalen-5-yloxy]-acetic acid bicyclo[2.2.1]hept-2-yl ester] | 31 to 60 min | < 15 min | 15 to 30 min
CCCCCC(O)CCC1C(O)CC2Cc3c(cccc3OCC(=O)OC(C)C)CC21 (stereo not shown) [Compound 20, [2-Hydroxy-1-(3-hydroxy-octyl)-2,3,3a,4,9,9a-hexahydro-1H-cyclopenta[b]naphthalen-5-yloxy]-acetic acid isopropyl ester] | 31 to 60 min | < 15 min | < 15 min
CCCCCC(O)CCC1C(O)CC2Cc3c(cccc3OCC(=O)NCC(F)(F)C(F)(F)F)CC21 (stereo not shown) [Compound 21, 2-[2-Hydroxy-1-(3-hydroxy-octyl)-2,3,3a,4,9,9a-hexahydro-1H-cyclopenta[b]naphthalen-5-yloxy]-N-(2,2,3,3,3-pentafluoro-propyl)-acetamide] | > 60 min | < 15 min | –
CCCCCC(O)CCC1C(OC(=O)CCCC)CC2Cc3c(cccc3OCC(=O)OC)CC21 (stereo not shown) [Compound 22, Pentanoic acid 1-(3-hydroxy-octyl)-5-methoxycarbonylmethoxy-2,3,3a,4,9,9a-hexahydro-1H-cyclopenta[b]naphthalen-2-yl ester] | > 60 min | < 15 min | > 60 min
CCCCCC(O)CCC1C(OC(=O)CC(C)C)CC2Cc3c(cccc3OCC(=O)OC)CC21 (stereo not shown) [Compound 23, 3-Methyl-butyric acid 1-(3-hydroxy-octyl)-5-methoxycarbonylmethoxy-2,3,3a,4,9,9a-hexahydro-1H-cyclopenta[b]naphthalen-2-yl ester] | > 60 min | < 15 min | –
CCCCCC(O)CCC1C(OC(=O)C2CC2)CC2Cc3c(cccc3OCC(=O)OC)CC21 (stereo not shown) [Compound 24, Cyclopropanecarboxylic acid 1-(3-hydroxy-octyl)-5-methoxycarbonylmethoxy-2,3,3a,4,9,9a-hexahydro-1H-cyclopenta[b]naphthalen-2-yl ester] | > 60 min | < 15 min | –
CCCCCC(O)CCC1C(OC(=O)CCC(=O)OCC)CC2Cc3c(cccc3OCC(=O)OC)CC21 (stereo not shown) [Compound 27, Succinic acid ethyl ester 1-(3-hydroxy-octyl)-5-methoxycarbonylmethoxy-2,3,3a,4,9,9a-hexahydro-1H-cyclopenta[b]naphthalen-2-yl ester] | > 60 min | < 15 min | –
CCCCCC(O)CCC1C(O)CC2Cc3c(cccc3OCC(=O)OC(C)(C)C)CC21 (stereo not shown) [Compound 28, [2-Hydroxy-1-(3-hydroxy-octyl)-2,3,3a,4,9,9a-hexahydro-1H-cyclopenta[b]naphthalen-5-yloxy]-acetic acid tert-butyl ester] | 15 to 30 min | < 15 min | –
